Our source for the melting point values is patent publication US7368578B2, “Five-membered heterocyclic compounds” (Takeda Pharmaceutical Company Limited, priority 2002, dated 2008).

Molecules are shown by their SMILES.

As a reminder, the melting point is the temperature, or range, at which the solid turns liquid. Molecule `Cc1oc(-c2ccccc2)nc1COc1ccc(COc2nn(-c3ccccc3)cc2/C=C/C(=O)O)cc1` [Example 83, (2E)-3-[3-({4-[(2-phenyl-5-methyl-1,3-oxazol-4-yl)methoxy]benzyl}oxy)-1-phenyl-1H-pyrazol-4-yl]-2-propenoic acid] yielded a melting point of 186 to 187 °C.
As for `Cc1oc(-c2ccco2)nc1COc1ccc(COc2nn(-c3ccccc3)cc2C=O)cc1` [Example 85, 3-[(4-{[2-(2-furyl)-5-methyl-1,3-oxazol-4-yl]methoxy}benzyl)oxy]-1-phenyl-1H-pyrazole-4-carbaldehyde], the melting point lay in the range of 148 to 149 °C.
For `CCOC(=O)/C=C/c1cn(-c2ccccc2)nc1OCc1ccc(OCc2nc(-c3ccco3)oc2C)cc1` [Example 87, ethyl (2E)-3-(3-[(4-{[2-(2-furyl)-5-methyl-1,3-oxazol-4-yl]methoxy}benzyl)oxy]-1-phenyl-1H-pyrazol-4-yl}-2-propenoate] the value was 142 to 143 °C; for `Cc1oc(-c2ccco2)nc1COc1ccc(COc2nn(-c3ccccc3)cc2/C=C/C(=O)O)cc1` [Example 88, (2E)-3-{3-[(4-{[2-(2-furyl)-5-methyl-1,3-oxazol-4-yl]methoxy}benzyl)oxy]-1-phenyl-1H-pyrazol-4-yl}-2-propenoic acid], 144 to 145 °C.
For `Cc1oc(-c2ccco2)nc1COc1ccc(COc2nn(-c3ccccc3)cc2C#N)cc1` [Example 89, 3-[(4-{[2-(2-furyl)-5-methyl-1,3-oxazol-4-yl]methoxy}benzyl)oxy]-1-phenyl-1H-pyrazole-4-carbonitrile] the value was 158 to 159 °C; for `Cc1oc(-c2ccccc2)nc1COc1ccc(OCc2nc(-c3ccccc3)oc2CO)cc1` [Example 91, [4-({4-[(5-methyl-2-phenyl-1,3-oxazol-4-yl)methoxy]phenoxy}methyl)-2-phenyl-1,3-oxazol-5-yl]methanol], 157 to 158 °C; for `COCOCc1nc(-c2ccccc2)oc1COc1ccc(OCc2nc(-c3ccccc3)oc2C)cc1` [Example 92, 4-[(methoxymethoxy)methyl]-5-({4-[(5-methyl-2-phenyl-1,3-oxazol-4-yl)methoxy]phenoxy}methyl)-2-phenyl-1,3-oxazole], 74 to 75 °C.
In the case of `Cc1oc(-c2ccccc2)nc1COc1ccc(OCc2oc(-c3ccccc3)nc2CO)cc1` [Example 93, [5-({4-[(5-methyl-2-phenyl-1,3-oxazol-4-yl)methoxy]phenoxy}methyl)-2-phenyl-1,3-oxazol-4-yl]methanol] it was 143 to 144 °C; in that of `COc1cc(COc2nn(-c3ccccc3)cc2/C=C/C(N)=O)ccc1OCc1nc(-c2ccco2)oc1C` [Example 94, (2E)-3-{3-[(4-{[2-(2-furyl)-5-methyl-4-oxazolyl]methoxy}-3-methoxybenzyl)oxy]-1-phenyl-1H-pyrazol-4-yl}-2-propenamide], 187 to 188 °C; in that of `COc1cc(COc2nn(-c3ccccc3)cc2/C=C/C#N)ccc1OCc1nc(-c2ccco2)oc1C` [Example 95, (2E)-3-{3-[(4-{[2-(2-furyl)-5-methyl-1,3-oxazol-4-yl]methoxy}-3-methoxybenzyl)oxy]-1-phenyl-1H-pyrazol-4-yl}-2-propenenitrile], 177 to 178 °C.
The molecule `COc1cc(COc2nn(-c3ccccc3)cc2C=C(C#N)C#N)ccc1OCc1nc(-c2ccco2)oc1C` [Example 96, ({3-[(4-{[2-(2-furyl)-5-methyl-1,3-oxazol-4-yl]methoxy}-3-methoxybenzyl)oxy]-1-phenyl-1H-pyrazol-4-yl)methylene) malononitrile] displayed a melting point of 190 to 191 °C.
Take `COc1cc(COc2nn(-c3ccccc3)cc2/C=C/C(=O)N2CCOCC2)ccc1OCc1nc(-c2ccco2)oc1C` [Example 98, 4-((2E)-3-{3-[(4-{[2-(2-furyl)-5-methyl-1,3-oxazol-4-yl]methoxy}-3-methoxybenzyl)oxy]-1-phenyl-1H-pyrazol-4-yl}-2-propenoyl)morpholine]: the melting point lay within 180 to 181 °C.
For `COc1cc(COc2nn(-c3ccccc3)cc2/C=C/C2=NCCO2)ccc1OCc1nc(-c2ccco2)oc1C` [Example 99, 4-({4-[({4-[(E)-2-(4,5-dihydro-1,3-oxazol-2-yl)ethenyl]-1-phenyl-1H-pyrazol-3-yl}oxy)methyl]-2-methoxyphenoxy}methyl)-2-(2-furyl)-5-methyl-1,3-oxazole] the value was 162 to 163 °C.
For `COCc1cn(-c2ccccc2)nc1OCc1ccc(OCc2nc(-c3ccco3)oc2C)c(OC)c1` [Example 101, 2-(2-furyl)-4-{[2-methoxy-4-({[4-(methoxymethyl)-1-phenyl-1H-pyrazol-3-yl]oxy}methyl)phenoxy]methyl}-5-methyl-1,3-oxazole] the value was 121 to 122 °C; for `CNCc1cn(-c2ccccc2)nc1OCc1ccc(OCc2nc(-c3ccco3)oc2C)c(OC)c1` [Example 102, N-({3-[(4-{[2-(2-furyl)-5-methyl-1,3-oxazol-4-yl]methoxy}-3-methoxybenzyl)oxy]-1-phenyl-1H-pyrazol-4-yl}methyl)-N-methylamine], 103 to 104 °C.
As to `COc1cc(COc2nn(-c3ccccc3)cc2CCO)ccc1OCc1nc(-c2ccco2)oc1C` [Example 104, 2-{3-[(4-{[2-(2-furyl)-5-methyl-1,3-oxazol-4-yl]methoxy}-3-methoxybenzyl)oxy]-1-phenyl-1H-pyrazol-4-yl}ethanol], the melting point lay within 123 to 124 °C.
For `COc1cc(COc2nn(-c3ccccc3)cc2/C=C2\SC(=O)N(C)C2=O)ccc1OCc1nc(-c2ccco2)oc1C` [Example 105, (5Z)-5-({3-[(4-{[2-(2-furyl)-5-methyl-1,3-oxazol-4-yl]methoxy}-3-methoxybenzyl)oxy]-1-phenyl-1H-pyrazol-4-yl}methylene)-3-methyl-1,3-thiazolidine-2,4-dione] the value was 215 to 216 °C; for `COc1cc(COc2nn(-c3ccccc3)cc2CC2SC(=O)N(C)C2=O)ccc1OCc1nc(-c2ccco2)oc1C` (stereo not drawn) [Example 106, 5-({3-[(4-{[2-(2-furyl)-5-methyl-1,3-oxazol-4-yl]methoxy}-3-methoxybenzyl)oxy]-1-phenyl-1H-pyrazol-4-yl}methyl)-3-methyl-1,3-thiazolidine-2,4-dione], 111 to 112 °C.
The molecule `COc1cc(COc2nn(-c3ccccc3)cc2-c2cnco2)ccc1OCc1nc(-c2ccco2)oc1C` [Example 107, 2-(2-furyl)-4-{[2-methoxy-4-({[4-(1,3-oxazol-5-yl)-1-phenyl-1H-pyrazol-3-yl]oxy}methyl)phenoxy]methyl}-5-methyl-1,3-oxazole] returned a melting point of 153 to 154 °C.
For `COc1cc(COc2nn(-c3ccccc3)cc2/C=C/CO)ccc1OCc1nc(-c2ccco2)oc1C` [Example 108, (2E)-3-{3-[(4-([2-(2-furyl)-5-methyl-1,3-oxazol-4-yl]methoxy}-3-methoxybenzyl)oxy]-1-phenyl-1H-pyrazol-4-yl}-2-propen-1-ol] the value was 120 to 121 °C.
For `COc1cc(COc2nn(-c3ccccc3)cc2/C=C/C=O)ccc1OCc1nc(-c2ccco2)oc1C` [Example 109, (2E)-3-{3-[(4-{[2-(2-furyl)-5-methyl-1,3-oxazol-4-yl]methoxy}-3-methoxybenzyl)oxy]-1-phenyl-1H-pyrazol-4-yl}-2-propenaldehyde] the value was 134 to 135 °C.
